From paper PMC7239035 (Chemistry, an Asian journal, 2019) come the findings set out here.

This experiment has as its target β2AR (human β2 adrenergic receptor) (Homo sapiens, UniProt P07550). Description: radioligand binding. The settings on record: labelled compound; antagonist; detergent micelles (PPM or DDM, CMC+0.2 wt%); room temperature.

Sequence of β2AR (human β2 adrenergic receptor) (P07550 whole entry): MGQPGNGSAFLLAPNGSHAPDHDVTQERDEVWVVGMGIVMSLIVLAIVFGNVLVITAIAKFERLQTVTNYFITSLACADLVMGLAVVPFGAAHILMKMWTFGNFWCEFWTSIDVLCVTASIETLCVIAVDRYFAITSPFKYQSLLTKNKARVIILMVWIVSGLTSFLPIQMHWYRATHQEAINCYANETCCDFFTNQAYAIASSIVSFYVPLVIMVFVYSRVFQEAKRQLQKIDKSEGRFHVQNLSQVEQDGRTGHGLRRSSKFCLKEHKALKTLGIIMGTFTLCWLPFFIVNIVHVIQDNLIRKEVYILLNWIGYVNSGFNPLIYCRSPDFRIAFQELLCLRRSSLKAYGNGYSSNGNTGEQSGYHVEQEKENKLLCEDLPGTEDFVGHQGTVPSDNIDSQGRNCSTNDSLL

Turning to `CCCc1ccccc1OCC(O)CNC(C)C` (stereo not shown) [[3H]-dihydroalprenolol], the radioligand binding entry is “receptor ability to bind the radio-labelled antagonist ([^3H]-dihydroalprenolol (DHA))”.
